# Source: PMC8151276, “An Integrated Approach toward NanoBRET Tracers for Analysis of GPCR Ligand Engagement” (Molecules, 2021)
# How the values were obtained:
# Type in all cases: binding
# CCR5 = molecular target: T1, CCR5 (Homo sapiens, UniProt P51681); assay: NanoBRET screen HiBiT-CCR5 in HEK293
# T1 construct: purchased Promega (in-house HiBiT-GPCR construct library, NanoBRET)
# Method: (§1) Each tracer candidate was screened across the entire library of HiBiT-GPCR constructs using NanoBRET as the detection modality. As depicted in Figure 4A, the specificity of interactions was evaluated through decrease in BRET due to competitive displacement of a bound tracer by excess parental compound. Each tracer was analyzed for binding to each HiBiT-GPCR fusion in the absence and in the presence of competing parental compound. Briefly, HEK293 cells were transfected with HiBiT-GPCR constructs diluted into promoterless DNA to reduce expression and maximize translocation to the cell surface. Each tracer candidate was then screened at concentrations of 1 μM and 0.1 μM across cells expressing these fusions. Cells were treated for 1.5 h with tracer either alone or in the presence of 20 μM competing parental compound (i.e., control). BRET was measured upon addition of purified LgBiT and subsequent complementation with HiBiT genetically fused to a GPCR. The specificity of interactions was assessed through a decrease in BRET signal due to competitive displacement of the bound tracer. To further gauge the robustness of these interactions, the fold response over the control (i.e., BRETtracer/BRETcontrol) was calculated. We chose a 1.5-fold response, which translates to ≥7-fold signal over noise as the minimal threshold required to score an interaction as positive. […]. Below we highlight the screening results obtained for our exemplary fluorescent tracers based on Clozapine, Amitriptyline and AZD1283.
# (§2) HiBiT-GPCR DNA constructs were diluted in 10 mM Tris pH 8 to a final concentration of 0.01 μg/μL, arrayed in 96-well plates and stored at −20 °C. For transfection, HEK293 cells were suspended in Opti-MEM (without phenol red) supplemented with 2% fetal bovine serum (Seradigm) and 100 units/mL penicillin–streptomycin (Gibco) at a final concentration of 220,000 cells/mL and dispensed into white 96-well plates at 90 μL/well. Subsequent transfections and screens were carried using an Agilent Bravo Automated Liquid Handling Platform. First, the 96-well HiBiT DNA arrays were diluted 25-fold in Opti-MEM (without serum or phenol red) to a final concentration of 0.0004 μg/μL and 20 μL of the diluted DNAs were transferred into new 96-well plates. Next, promoterless carrier DNA (1 μg/μL) was diluted 25-fold (0.04 μg/μL) and then dispensed into the diluted arrays at 20 μL/well. Following brief mixing, Viafect transfection reagent (Promega) diluted 16-fold into Opti-MEM was dispensed into the plates at 40 μL/well. After mixing by pipetting, plates were incubated for 10 min on the pipetting station deck. The DNA-transfection reagent complexes were then added to plates containing cells. To facilitate the screen, 10 μL of DNA-transfection reagent complexes were added in duplicates to the top 4 and bottom 4 rows, resulting in two identical 48-well arrays per plate. Plates with transfected cells were incubated for 18–20 h at 37 °C/5% CO2. A screen of each tracer across the entire library using two different concentrations requires duplicate plates of transfected cells. Depending on the number of tracers being screened, transfections can be scaled up using the same ratios. The next day, for each tracer, four 20× screening solutions in tracer dilution buffer (Promega) were prepared: two duplicates at final concentration of 20 μM and two duplicates at a final concentration of 2 μM. A competing unmodified compound was added to one of each duplicate at a final concentration of 400 μM. The four resulting solutions were diluted 4-fold in Opti-MEM without serum or phenol red to generate 5× solutions (5 µM and 0.5 µM tracer +/− 100 μM competing compound). To screen the library, a BioTek MultiFlo FX liquid dispenser was used to dispense 22.5 µL of tracer solution to the top 4 rows and 22.5 µL tracer + competing compound solution to the 4 bottom rows. Plates were briefly mixed on an orbital shaker and incubated for 1.5 h at room temperature. […]
# GALR2 = molecular target: T2, GALR2 (Homo sapiens, UniProt O43603); assay: NanoBRET screen HiBiT-GALR2 in HEK293
# T2 construct: purchased Promega (in-house HiBiT-GPCR construct library, NanoBRET)
# T2 sequence (O43603 1-387): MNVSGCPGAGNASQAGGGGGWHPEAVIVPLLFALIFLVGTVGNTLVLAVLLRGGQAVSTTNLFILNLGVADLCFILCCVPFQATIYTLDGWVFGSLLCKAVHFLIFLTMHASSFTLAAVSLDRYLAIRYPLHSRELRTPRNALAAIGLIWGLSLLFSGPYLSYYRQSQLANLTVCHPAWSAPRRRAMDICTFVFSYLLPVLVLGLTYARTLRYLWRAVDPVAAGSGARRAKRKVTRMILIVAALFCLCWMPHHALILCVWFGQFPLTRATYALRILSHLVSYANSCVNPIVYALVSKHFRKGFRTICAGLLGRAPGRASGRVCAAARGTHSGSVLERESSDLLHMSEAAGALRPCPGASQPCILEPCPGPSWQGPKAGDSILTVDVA
# Method: as §1, §2
# PTGER2 = molecular target: T3, PTGER2 (Homo sapiens, UniProt P43116); assay: NanoBRET screen HiBiT-PTGER2 in HEK293
# T3 construct: purchased Promega (in-house HiBiT-GPCR construct library, NanoBRET)
# Method: as §1, §2
# GRM4 = molecular target: T4, GRM4 (Homo sapiens, UniProt Q14833); assay: NanoBRET screen HiBiT-GRM4 in HEK293
# T4 construct: purchased Promega (in-house HiBiT-GPCR construct library, NanoBRET)
# Method: as §1, §2
# T3 sequence (P43116 whole entry): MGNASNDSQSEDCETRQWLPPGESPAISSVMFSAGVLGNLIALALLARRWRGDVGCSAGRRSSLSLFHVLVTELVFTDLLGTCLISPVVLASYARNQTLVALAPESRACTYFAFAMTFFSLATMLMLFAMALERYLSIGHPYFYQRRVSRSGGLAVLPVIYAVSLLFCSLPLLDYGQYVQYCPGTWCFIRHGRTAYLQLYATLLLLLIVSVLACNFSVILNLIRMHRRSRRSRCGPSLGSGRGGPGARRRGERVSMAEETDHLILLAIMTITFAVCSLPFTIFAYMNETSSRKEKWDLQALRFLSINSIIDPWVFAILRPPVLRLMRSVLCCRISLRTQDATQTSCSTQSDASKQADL
# T4 sequence (Q14833 33-912): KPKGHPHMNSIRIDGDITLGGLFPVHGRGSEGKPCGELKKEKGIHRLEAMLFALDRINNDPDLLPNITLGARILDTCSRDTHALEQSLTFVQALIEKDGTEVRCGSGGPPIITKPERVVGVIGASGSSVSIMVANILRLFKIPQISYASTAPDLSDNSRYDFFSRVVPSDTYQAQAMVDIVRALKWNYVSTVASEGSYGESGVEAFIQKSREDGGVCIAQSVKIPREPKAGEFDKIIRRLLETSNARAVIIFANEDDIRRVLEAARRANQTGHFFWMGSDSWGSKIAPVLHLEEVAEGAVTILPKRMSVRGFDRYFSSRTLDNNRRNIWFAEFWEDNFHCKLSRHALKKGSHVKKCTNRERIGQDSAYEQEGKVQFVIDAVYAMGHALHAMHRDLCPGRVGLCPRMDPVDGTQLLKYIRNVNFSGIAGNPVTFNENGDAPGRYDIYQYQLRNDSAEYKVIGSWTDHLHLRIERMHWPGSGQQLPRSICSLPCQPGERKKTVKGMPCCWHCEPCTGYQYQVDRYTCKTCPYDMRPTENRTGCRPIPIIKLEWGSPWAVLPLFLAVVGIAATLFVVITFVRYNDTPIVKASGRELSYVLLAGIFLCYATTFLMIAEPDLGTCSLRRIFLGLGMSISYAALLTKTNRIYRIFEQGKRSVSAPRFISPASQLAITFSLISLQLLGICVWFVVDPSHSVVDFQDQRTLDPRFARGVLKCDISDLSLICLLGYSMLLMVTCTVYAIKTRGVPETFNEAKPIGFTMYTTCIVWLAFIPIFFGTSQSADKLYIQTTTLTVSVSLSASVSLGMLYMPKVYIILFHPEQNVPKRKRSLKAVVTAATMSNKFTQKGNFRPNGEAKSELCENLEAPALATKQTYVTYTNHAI
# T1 sequence (P51681 whole entry): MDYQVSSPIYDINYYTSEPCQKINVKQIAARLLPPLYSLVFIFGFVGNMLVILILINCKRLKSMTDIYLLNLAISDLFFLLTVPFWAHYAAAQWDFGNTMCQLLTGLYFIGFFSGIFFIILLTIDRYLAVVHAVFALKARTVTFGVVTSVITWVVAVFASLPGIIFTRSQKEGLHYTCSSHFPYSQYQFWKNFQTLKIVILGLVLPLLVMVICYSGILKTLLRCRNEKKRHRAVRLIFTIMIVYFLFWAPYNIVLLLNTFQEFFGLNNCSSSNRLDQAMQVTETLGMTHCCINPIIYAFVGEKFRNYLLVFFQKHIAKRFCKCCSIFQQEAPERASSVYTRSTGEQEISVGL
Structure (SMILES),"NanoBRET Fold Response (CCR5; CCR5, 0.1μM tracer)","NanoBRET Fold Response (CCR5; CCR5, 1μM tracer)","NanoBRET Fold Response (GALR2; GALR2, 0.1μM tracer)","NanoBRET Fold Response (GALR2; GALR2, 1μM tracer)","NanoBRET Fold Response (PTGER2; PTGER2, 0.1μM tracer)","NanoBRET Fold Response (PTGER2; PTGER2, 1μM tracer)","NanoBRET Fold Response (GRM4; GRM4, 0.1μM tracer)","NanoBRET Fold Response (GRM4; GRM4, 1μM tracer)","NanoBRET Fold Response (CCR5; CCR5, tracer 0.1μM)","NanoBRET Fold Response (CCR5; CCR5, tracer 1μM)","NanoBRET Fold Response (GALR2; GALR2, tracer 0.1μM)","NanoBRET Fold Response (GALR2; GALR2, tracer 1μM)","NanoBRET Fold Response (PTGER2; PTGER2, tracer 0.1μM)","NanoBRET Fold Response (PTGER2; PTGER2, tracer 1μM)","NanoBRET Fold Response (GRM4; GRM4, tracer 0.1μM)","NanoBRET Fold Response (GRM4; GRM4, tracer 1μM)",further results
COc1ccc2[nH]c(-c3ccc(CNC(=O)CCOCCOCCOCCOCCNC(=O)CCc4ccc5n4[B-](F)(F)[N+]4=C(c6ccc[nH]6)C=CC4=C5)cc3)c(CCNC(C)=O)c2n1 [AzomelatoninICO9-2-NB590],–,–,–,–,–,–,–,–,–,–,–,–,–,–,–,–,NanoBRET Fold Response (CCR5; 0.1μM tracer): 1.31; NanoBRET Fold Response (CCR5; 1μM tracer): 0.98; NanoBRET Fold Response (GALR2; 0.1μM tracer): 0.92; NanoBRET Fold Response (GALR2; 1μM tracer): 1.01; NanoBRET Fold Response (PTGER2; 0.1μM tracer): 1.01; NanoBRET Fold Response (PTGER2; 1μM tracer): 0.97; NanoBRET Fold Response (GRM4; 0.1μM tracer): 0.97; NanoBRET Fold Response (GRM4; 1μM tracer): 0.85
O=C(CCOCCOCCOCCOCCNC(=O)CCc1ccc2n1[B-](F)(F)[N+]1=C(c3ccc[nH]3)C=CC1=C2)NCCCN1CCN(C2=Nc3cc(Cl)ccc3Nc3ccccc32)CC1 [Clozapine-a-2-NB590],1.07,0.90,1.09,1.19,1.01,1.05,1.02,0.99,–,–,–,–,–,–,–,–,–
CN1CCN(C2=Nc3cc(Cl)ccc3Nc3ccc(CNC(=O)CCOCCOCCOCCOCCNC(=O)CCc4ccc5n4[B-](F)(F)[N+]4=C(c6ccc[nH]6)C=CC4=C5)cc32)CC1 [Clozapine-b-2-NB590],1.05,0.92,0.93,0.99,1.01,0.98,1.05,1.03,–,–,–,–,–,–,–,–,–
CN1CCN(C2=Nc3cc(Cl)ccc3N(CC(=O)NCCOCCOCCOCCOCCNC(=O)CCc3ccc4n3[B-](F)(F)[N+]3=C(c5ccc[nH]5)C=CC3=C4)c3ccccc32)CC1 [Clozapine-c-2-NB590],0.98,0.95,1.00,1.05,0.98,1.09,0.94,1.14,–,–,–,–,–,–,–,–,–
O=C(CCOCCOCCOCCOCCNC(=O)CCc1ccc2n1[B-](F)(F)[N+]1=C(c3ccc[nH]3)C=CC1=C2)NCCCN1CCN(C2=Nc3ccccc3Oc3ccc(Cl)cc32)CC1 [Loxapine-a-2-NB590],–,–,–,–,–,–,–,–,1.00,1.34,1.09,1.12,1.03,1.03,1.04,0.99,–
COc1ccccc1N1CCN(CCCCN2C(=O)c3ccc(CNC(=O)CCOCCOCCOCCOCCNC(=O)CCc4ccc5n4[B-](F)(F)[N+]4=C(c6ccc[nH]6)C=CC4=C5)cc3C2=O)CC1 [NAN-190-2-NB590],–,–,–,–,–,–,–,–,0.95,1.03,1.00,0.99,1.02,0.98,0.98,0.97,–
COc1ccccc1N1CCN(CCCCN2C(=O)c3ccc(CNC(=O)CCOCCNC(=O)c4ccc(CNC(=O)CCc5ccc6n5[B-](F)(F)[N+]5=C(c7ccc[nH]7)C=CC5=C6)cc4)cc3C2=O)CC1 [NAN-190-3-NB590],–,–,–,–,–,–,–,–,0.95,1.03,1.03,1.00,1.06,1.00,1.14,1.33,–
